The values that follow are results of earlier work, collected in US6025374A, “Azetidine, pyrrolidine and piperidine derivatives as 5HT1 receptor agonists” (Merck Sharp & Dohme, Ltd., priority 1994, dated 2000).

The conditions of this series: therapeutic doses; literature.

Molecules are shown by their SMILES.

For `CNS(=O)(=O)Cc1ccc2[nH]cc(CCN(C)C)c2c1` [sumatriptan], the “adverse events in humans” value was “certain adverse cardiovascular events”.
